Data: PubChem BioAssay AID330 (DTP/NCI, 2004)
Values joined by “and” are separate entries in the source; they are usually repeats but may differ in a detail not shown here. Equal entries are not always repeated. Toxic doses and inconclusive results are not listed.

Tested on: P388 leukemia ip, CD2F1 mice, survival T/C
Test: NCI In Vivo Anticancer Drug Screen. Data for tumor model P388 Leukemia (intraperitoneal) in CD2F1 (CDF1) mice
Conditions: endpoint: median survival time, higher = longer survival
Method in brief: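 Mice carrying the transplanted tumor received test compound or vehicle. Survival was recorded in each group, and the value is the treated-group measurement divided by that of the vehicle-treated control group.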

[1] = dose: 100.0 mg/kg/injection, schedule: Q04DX003 (ip), vehicle: saline with Tween-80
[2] = dose: 50.0 mg/kg/injection, schedule: Q01DX009 (ip), vehicle: saline
[3] = dose: 100.0 mg/kg/injection, schedule: Q01DX009 (ip), vehicle: saline
[4] = dose: 50.0 mg/kg/injection, schedule: Q01DX009 (ip), vehicle: saline with Tween-80
[5] = dose: 100.0 mg/kg/injection, schedule: Q01DX009 (ip), vehicle: saline with Tween-80
[6] = dose: 50.0 mg/kg/injection, schedule: Q01DX005 (ip), vehicle: saline with Tween-80
[7] = dose: 100.0 mg/kg/injection, schedule: Q01DX005 (ip), vehicle: saline with Tween-80
[8] = dose: 200.0 mg/kg/injection, schedule: Q01DX005 (ip), vehicle: saline with Tween-80
[9] = dose: 50.0 mg/kg/injection, schedule: Q01DX005 (ip), vehicle: Klucel (hydroxypropylcellulose) (HPC)
[10] = dose: 100.0 mg/kg/injection, schedule: Q01DX005 (ip), vehicle: Klucel (hydroxypropylcellulose) (HPC)
[11] = dose: 200.0 mg/kg/injection, schedule: Q01DX005 (ip), vehicle: Klucel (hydroxypropylcellulose) (HPC)
[12] = dose: 15.0 mg/kg/injection, schedule: Q01DX005 (ip), vehicle: saline with Tween-80
[13] = dose: 30.0 mg/kg/injection, schedule: Q01DX005 (ip), vehicle: saline with Tween-80
[14] = dose: 60.0 mg/kg/injection, schedule: Q01DX005 (ip), vehicle: saline with Tween-80
[15] = dose: 120.0 mg/kg/injection, schedule: Q01DX005 (ip), vehicle: saline with Tween-80
[16] = dose: 200.0 mg/kg/injection, schedule: Q01DX009 (ip), vehicle: saline
[17] = dose: 400.0 mg/kg/injection, schedule: Q01DX009 (ip), vehicle: saline with Tween-80

For CC(=O)[C@]1(O)Cc2c(O)c3c(c(O)c2C(OC2CC(N=[N+]=[N-])C(O)[C@@H](CN=[N+]=[N-])O2)C1)C(=O)c1c(O)cccc1C3=O (stereo partly drawn), the T/C (dose: 3.13 mg/kg/injection, schedule: Q04DX003 (ip), vehicle: saline with Tween-80) was 93 % of control, the T/C (dose: 6.25 mg/kg/injection, schedule: Q04DX003 (ip), vehicle: saline with Tween-80) was 93 % of control and the T/C (dose: 12.5 mg/kg/injection, schedule: Q04DX003 (ip), vehicle: saline with Tween-80) was 96 % of control. The T/C (dose: 25.0 mg/kg/injection, schedule: Q04DX003 (ip), vehicle: saline with Tween-80) was 96 % of control, the T/C (dose: 50.0 mg/kg/injection, schedule: Q04DX003 (ip), vehicle: saline with Tween-80) was 91 % of control and the T/C [1] was 105 % of control.

Cn1cnc([N+](=O)[O-])c1C(=O)O was tested, and the T/C [2] was 107 % of control and the T/C [3] was 89 % of control.

For Clc1ccc(CC(Cn2ccnc2)c2ccccc2Cl)cc1 (stereo not drawn), the T/C [4] was 94 % of control and the T/C [5] was 86 % of control.

CC(=O)OCC1OC(n2nc(/C=C/c3ccco3)c(=O)n(-c3ccccc3)c2=S)C(OC(C)=O)C(OC(C)=O)C1OC(C)=O (stereo not drawn) was tested, and the T/C [1] was 107 % of control, the T/C (dose: 200.0 mg/kg/injection, schedule: Q04DX003 (ip), vehicle: saline with Tween-80) was 100 % of control and the T/C (dose: 400.0 mg/kg/injection, schedule: Q04DX003 (ip), vehicle: saline with Tween-80) was 101 % of control.

Nc1nc2[nH]c(=O)[nH]c(=O)c2[nH]1 was tested, and the T/C [6] was 100 % of control, the T/C [7] was 102 % of control and the T/C [8] was 109 % of control.

CC(=O)[O][Sn]([CH3])([CH3])[CH3] was tested, and the T/C (dose: 0.37 mg/kg/injection, schedule: Q01DX009 (ip), vehicle: saline) was 112 % of control and the T/C (dose: 0.75 mg/kg/injection, schedule: Q01DX009 (ip), vehicle: saline) was 112 % of control.

With COC(=O)C1=C(C(=O)OC)P2(c3ccccc3)(c3ccccc3)N(c3ccccc3)C(=Nc3ccccc3)N2C1(c1ccccc1)c1ccccc1 the T/C [9] was 94 % of control, the T/C [10] was 102 % of control and 96 % of control and the T/C [11] was 100 % of control and 89 % of control.

For COc1ccc(C2=NN(C(C)=O)C(c3cc(OC)c(OC)cc3N)S2)cc1OC (stereo not drawn) (tested in a mixture with another compound), the T/C (dose: 7.5 mg/kg/injection, schedule: Q01DX005 (ip), vehicle: saline with Tween-80) was 97 % of control, the T/C [12] was 92 % of control and the T/C [13] was 90 % of control.

NC(=O)c1coc2c1C(=O)c1ccc3ccccc3c1CC2 was tested, and the T/C [14] was 102 % of control, the T/C [15] was 102 % of control and the T/C (dose: 240.0 mg/kg/injection, schedule: Q01DX005 (ip), vehicle: saline with Tween-80) was 108 % of control.

In the case of Cc1ccc(S(=O)(=O)NC(CN(CC(=O)O)N=O)C(=O)O)cc1 (stereo not drawn), the T/C [9] is reported as 97 % of control, the T/C [10] is reported as 96 % of control and the T/C [11] is reported as 98 % of control.

With c1ccc(CC2CCc3ccccc3/C2=N/OCC2CO2)cc1 (stereo not drawn) the T/C [13] was 101 % of control, the T/C [14] was 97 % of control and the T/C [15] was 98 % of control.

In the case of CC(C)C(=O)NCc1ccccc1Sc1ccccc1CNC(=O)C(C)C, the T/C (dose: 100.0 mg/kg/injection, schedule: Q04DX002 (ip), vehicle: saline with Tween-80) is reported as 90 % of control, the T/C (dose: 200.0 mg/kg/injection, schedule: Q04DX002 (ip), vehicle: saline with Tween-80) is reported as 90 % of control and the T/C (dose: 400.0 mg/kg/injection, schedule: Q04DX002 (ip), vehicle: saline with Tween-80) is reported as 91 % of control.

CCCCCCCCCCCCCC[N+](C)(CC(=O)[O-])Cc1ccccc1 (stereo not drawn) was tested, and the T/C [12] was 108 % of control, the T/C [13] was 93 % of control and the T/C [14] was 101 % of control.

For CB1NN=C(C)c2ccsc21, the T/C [4] was 110 % of control.

For CSc1ncc2c(=O)c3c(ccc4ccccc43)oc2n1, the T/C (dose: 3.12 mg/kg/injection, schedule: Q01DX009 (ip), vehicle: saline with Tween-80) was 93 % of control, the T/C (dose: 6.25 mg/kg/injection, schedule: Q01DX009 (ip), vehicle: saline with Tween-80) was 102 % of control and the T/C (dose: 12.5 mg/kg/injection, schedule: Q01DX009 (ip), vehicle: saline with Tween-80) was 96 % of control.

C[C@]12CCC[C@H](O)[C@H]1O2 was tested, and the T/C (dose: 100.0 mg/kg/injection, schedule: Q04DX003 (ip), vehicle: saline) was 104 % of control, the T/C (dose: 200.0 mg/kg/injection, schedule: Q04DX003 (ip), vehicle: saline) was 102 % of control and the T/C (dose: 400.0 mg/kg/injection, schedule: Q04DX003 (ip), vehicle: saline) was 102 % of control.

For CC(=O)CC1(O)C(=O)C(C(C)(C)C)=CC2(C(C)(C)C)OC12 (stereo not drawn), the T/C [2] was 102 % of control, the T/C [3] was 95 % of control and the T/C [16] was 95 % of control.

For COc1ccc2c(c1OC)C(CC(C)=O)N1CCc3cc4c(cc3C1C2=O)OCO4 (stereo not drawn), the T/C (dose: 60.0 mg/kg/injection, schedule: Q01DX005 (ip), vehicle: Klucel (hydroxypropylcellulose) (HPC)) was 100 % of control, the T/C (dose: 120.0 mg/kg/injection, schedule: Q01DX005 (ip), vehicle: Klucel (hydroxypropylcellulose) (HPC)) was 92 % of control and the T/C (dose: 240.0 mg/kg/injection, schedule: Q01DX005 (ip), vehicle: Klucel (hydroxypropylcellulose) (HPC)) was 88 % of control.

In the case of COc1cc(CN2CCCCC2)cc2cc(C(=O)O)c(=O)oc12, the T/C [6] is reported as 103 % of control, the T/C [7] is reported as 101 % of control and the T/C [8] is reported as 100 % of control.

N#CC1C(=O)NC(=S)NC1c1ccc2c(c1)CCC2 (stereo not drawn) was tested, and the T/C [2] was 100 % of control, the T/C [3] was 95 % of control and the T/C [16] was 94 % of control.

In the case of NC(=O)SCC(N)C(=O)O (stereo not drawn), the T/C [4] is reported as 111 % of control, the T/C [2] is reported as 108 % of control and the T/C (dose: 50.0 mg/kg/injection, schedule: Q01DX009 (ip), vehicle: suspension in saline) is reported as 108 % of control. The T/C [5] was 114 % of control and 119 % of control, the T/C (dose: 100.0 mg/kg/injection, schedule: Q01DX009 (ip), vehicle: suspension in saline) was 121 % of control and the T/C [17] was 101 % of control. The T/C (dose: 400.0 mg/kg/injection, schedule: Q01DX009 (ip), vehicle: saline) was 98 % of control and 93 % of control.

With Cc1ccc(S(=O)(=O)N/N=C/c2cccs2)cc1 the T/C [4] was 95 % of control, the T/C [5] was 87 % of control and the T/C (dose: 200.0 mg/kg/injection, schedule: Q01DX009 (ip), vehicle: saline with Tween-80) was 93 % of control. The T/C [17] was 102 % of control.

COc1cc2c(cc1OC)C13CC[N+]4([O-])CC5=CCOC6CC(=O)N2C1C6C5CC34 (stereo not drawn) was tested, and the T/C (dose: 15.0 mg/kg/injection, schedule: Q01DX005 (ip), vehicle: saline) was 107 % of control, the T/C (dose: 30.0 mg/kg/injection, schedule: Q01DX005 (ip), vehicle: saline) was 108 % of control and the T/C (dose: 60.0 mg/kg/injection, schedule: Q01DX005 (ip), vehicle: saline) was 106 % of control and 107 % of control. For the same molecule, the T/C (dose: 120.0 mg/kg/injection, schedule: Q01DX005 (ip), vehicle: saline) was 100 % of control and the T/C (dose: 240.0 mg/kg/injection, schedule: Q01DX005 (ip), vehicle: saline) was 97 % of control.

For O=c1[nH]cccc1O, the T/C (dose: 16.0 mg/kg/injection, schedule: Q01DX009 (ip), vehicle: saline with Tween-80) was 115 % of control, the T/C (dose: 32.0 mg/kg/injection, schedule: Q01DX009 (ip), vehicle: saline with Tween-80) was 122 % of control and the T/C (dose: 50.0 mg/kg/injection, schedule: Q01DX009 (ip), vehicle: Klucel (hydroxypropylcellulose) (HPC)) was 109 % of control and 113 % of control. The T/C [2] was 105 % of control and 110 % of control, the T/C (dose: 64.0 mg/kg/injection, schedule: Q01DX009 (ip), vehicle: saline with Tween-80) was 112 % of control and the T/C [3] was 100 % of control and 111 % of control. The T/C [16] was 112 % of control and 115 % of control, the T/C (dose: 400.0 mg/kg/injection, schedule: Q01DX009 (ip), vehicle: Klucel (hydroxypropylcellulose) (HPC)) was 98 % of control and the T/C (dose: 512.0 mg/kg/injection, schedule: Q01DX009 (ip), vehicle: saline with Tween-80) was 153 % of control.

For CCC(c1ccc(OCC(=O)OCCNCCCl)cc1)C(CC)c1ccc(OCC(=O)OCCNCCCl)cc1 (stereo not drawn), the T/C (dose: 25.0 mg/kg/injection, schedule: Q04DX002 (ip), vehicle: saline) was 101 % of control, the T/C (dose: 50.0 mg/kg/injection, schedule: Q04DX002 (ip), vehicle: saline) was 97 % of control and the T/C (dose: 100.0 mg/kg/injection, schedule: Q04DX002 (ip), vehicle: saline) was 101 % of control. For the same molecule, the T/C (dose: 100.0 mg/kg/injection, schedule: Q04DX002 (ip), vehicle: suspension in saline) was 97 % of control and the T/C (dose: 200.0 mg/kg/injection, schedule: Q04DX002 (ip), vehicle: suspension in saline) was 87 % of control.
